The test system of one assay is db^Pas/db^Pas mice. Description: Postprandial plasma TG response after high-fat test meal in db^Pas/db^Pas mice. It counts as in vivo, mouse. The settings on record: 1 μg/animal i.p. On the procedure:
FIGS. 1A and 1B show the effect of leptin on postprandial plasma TG response in db/db and db^Pas/db^Pas mice. Overnight-fasted db/db (A), db^Pas/db^Pas (B) mice were gavage-fed a high-fat test meal and immediately injected intravenously (db/db) or intraperitoneally (db^Pas/db^Pas) with saline (open symbols) or 50 μg mouse recombinant leptin (closed symbols). At the indicated times, blood was collected from the tail (A) or orbital (B) vein, plasma was separated by centrifugation, and plasma TG concentrations were determined using an enzymatic kit. Each point represents the mean±SEM (db/db: saline, n=4, leptin, n=3; db^Pas/db^Pas: saline, n=6, leptin, n=7). The average plasma lipid response in 10 control C57BL6 mice is shown as a dotted line in both A and B. In a separate experiment, shown as an inset for each strain of mice, overnight fasted db/db (●) or db^Pas/db^Pas (▪) mice were gavage-fed the test meal and immediately injected intravenously with increasing concentrations of leptin. The plasma lipid response was then measured as in A and B. The area under the response curve (AUC) was then calculated using a triangulation method on Microsoft Excel between 0 and 4 hr (mg TG·h/mL). Values are presented as % of control value (test meal alone obtained in A or B). Each point represents the mean of at least 3 mice.
(§1) FIGS. 7A and 7B show a comparison of the effect of human and mouse leptin on LSR activity in rat hepatocytes and on postprandial increase in plasma TG in db^Pas/db^Pas mice. For FIG. 7A, primary cultures of rat hepatocytes were incubated 30 min at 37° C. without (open bar) or with 10 ng/mL recombinant human (solid bar) or mouse (hatched bar) leptin in Buffer A. Oleate (0.5 mM) and ^125I-LDL (20 μg/mL) were added and the cells were incubated 2 h at 37° C. The media were removed and were analyzed for TCA-soluble degradation products. The mean of duplicate determinations is shown. For FIG. 7B, db^Pas/db^Pas mice were given a test meal as previously described, followed immediately by injection i.p. of saline (open bar, n=4), human leptin (1 μg/animal; solid bar, n=3) or mouse leptin (0.25 μg/animal; hatched bar; n=3). The data represent the difference in TG concentrations measured at t=0 and the average of the concentrations at 3 and 4 hours. Results are shown as mean±SEM.
Mice that were fasted for 2-3 hours were gavage-fed 300 μL of a test meal consisting of 60% fat (37% saturated, 27% mono-, and 36% polyunsaturated fatty acids), 20% protein and 20% carbohydrate, and providing 56 kcal of energy/kg (1.5 g butter, 1.5 g sunflower oil, 2.5 g nonfat dry milk, 2.5 g sucrose and 3 ml water). […] TG concentrations were determined using a commercially available enzymatic kit with controls included in each assay (Precinorm L, Roche-Boehringer Mannheim; Lyotrol N, BioMérieux).

The test system of assay [1] is LSR. The assay is described as follows: LSR activity (oleate-induced 125I-LDL binding, uptake, degradation) in PLC cells. The format is cell-based, human. On the procedure:
FIGS. 5A, 5B, 5C, and 5D show the stimulatory effect of leptin on LSR activity in PLC and suppression of this effect by 81B antibody. For FIGS. 5A, 5B, and 5C, cultured PLC cells were incubated at 37° C. for 30 min with increasing concentrations of human recombinant leptin in Buffer A. After this, 0.5 mM oleate and 20 μg/mL ^125I-LDL were added, and cells were further incubated at 37° C. for 2 h. Cells were washed, and the amount of oleate-induced ^125I-LDL bound (5A), internalized (5B) and degraded (5C) were measured. For FIG. 5D, PLC cells were incubated at room temperature for 30 min with 200 μg/mL anti-LSR peptide 81B or 170 antibody, followed by incubation at 37° C. for 30 min without (open bar) or with (hatched bar) 10 ng/mL human leptin. Oleate (0.5 mM) and ^125I-LDL (20 μg/mL) were added, and the monolayers were left at 37° C. for 3 h. After washing, the amount of ^125I-LDL binding was determined, and is shown here as the mean±SD of triplicate determinations.
FIGS. 8A and 8B show the effect of mouse or human leptin on LSR activity in primary cultures of rat hepatocytes or a human liver cell line (PLC). Primary cultured rat hepatocytes were obtained commercially (In Vitro Tech). The PLC cell line was obtained from ATCC repository and maintained in culture. Rat hepatocytes 72 h after plating (8A) or confluent monolayers of PLC (8B) were incubated 30 min at 37° C. with 0 (closed bar) or 10 ng/mL of human (open bar) or mouse (hatched bar) recombinant leptin. Following this, 0.5 mM oleate and 20 μg/mL ^125I-LDL were added and the cells were further incubated for 2 h at 37° C. […] The cells were washed, and the amount of oleate-induced ^125I-LDL bound and degraded was measured as described previously (Bihain, B. E., and Yen, F. T. (1992). Free fatty acids activate a high-affinity saturable pathway for degradation of low density lipoproteins infibroblasts from a subject homozygous for familial hypercholesterolemia. Biochemistry 31, 4628-4636.
FIGS. 35A and 35B show graphs of LSR activity and mRNA expression measured in PLC cells preincubated 24 h with leptin. In FIG. 35A, PLC monolayers were incubated 24 h at 37° C. with (o) or without (n) 200 ng/mL human recombinant leptin. After washing with PBS, cells were incubated 30 min at 37° C. with increasing concentrations of human leptin, followed by a 2 h incubation at 37° C. with 0.8 mM oleate and 20 μg/mL ^125I-LDL. Cells were washed, and the amount of oleate-induced ^125I-LDL binding was measured as described previously. Results are shown as the mean of triplicate determinations. In FIG. 35B, PLC monolayers were incubated 24 h at 37° C. with 0, 200, or 400 ng/mL human recombinant leptin. After washing with PBS, the cells were harvested. Total RNA was prepared from the cell pellets, and Northerns were performed to detect LSR mRNA, using GAPDH probe as loading control as described previously. Northern blots were scanned on the Phosphorimager (Molecular Dynamics, Sunnyvale, Calif.). Densitometric analysis of the images was performed using the software ImageQuant. Results are shown as the amount of LSR signal relative to that of GAPDH (mean±SD, n=3/condition). […]

Assay [2] relates to LSR. Description: 125I-leptin degradation in PLC cells. It counts as cell-based, human. The note with it: 50 μM.
Assay [3] deals with LSR. Description: LSR activity (oleate-induced 125I-LDL binding, uptake, degradation) in primary cultures of rat hepatocytes. It counts as cell-based. The settings on record: rat hepatocytes; 50 μM. Here is the method: FIGS. 6A, 6B, and 6C show the effect of leptin on ^125I-LDL and ^125I-chylomicron binding to LSR in primary cultures of rat hepatocytes. For FIG. 6A, primary cultures of rat hepatocytes (48 hours after plating) were incubated at 37° C. for 30 min in the absence (□) or presence (▪) of 50 ng/mL leptin in Buffer A, followed by a 20 min incubation at 37° C. with 0.5 mM oleate. The cells were then washed with ice-cold PBS, precooled for 10 min, and then incubated for 1 h at 4° C. with increasing concentrations of ^125I-LDL in Buffer A. Cells were washed, were lysed in 0.1 N NaOH and were counted for radioactivity. Results are shown as the mean of duplicate determinations. For FIG. 6B, primary cultures of rat hepatocytes were incubated at 37° C. for 30 min with or without 20 ng/mL leptin followed by incubation at 37° C. for 4 h with 6 μg protein/mL ^125I-chylomicrons in the absence or presence of 0.5 mM oleate in Buffer A. The cells were then washed and the ^125I-chylomicrons bound to the cell surface were released into the media by incubation with 10 mM suramin. The media was recovered and the radioactivity was measured. Results are shown as the mean±SD of six determinations. Fir FIG. 6C, after incubation at 37° C. for 30 min with 50 ng/mL leptin, the cells were incubated at room temperature for 30 min with 200 μg IgG/mL antibodies directed against rat LSR protein or irrelevant IgG. The amount of ^125I-chylomicrons bound was determined, and results are shown as means±SD of triplicate (irrelevant) or quadruplicate (anti-LSR) determinations.
as §1
Cells were incubated 30 min at 37° C. with increasing concentrations of mouse (▪) or human (●) leptin peptide. Following this, 0.5 mM oleate and 20 μg/mL ^125I-LDL were added and the cells were further incubated for 2 h at 37° C. The cells were washed, and the amount of oleate-induced ^125I-LDL bound and degraded was measured as described previously (Bihain, B. E., and Yen, F. T. (1992). Free fatty acids activate a high-affinity saturable pathway for degradation of low-density lipoproteins in fibroblasts from a subject homozygous for familial hypercholesterolemia. Biochemistry 31, 4628-4636).
FIGS. 11A and 11B show the effect of mouse leptin (FIG. 11A) or leptin peptide (FIG. 11B) on postprandial plasma TG response in ob/ob mice. […] Postprandial triglyceridemia was measured as described previously. Each point represents the mean±SEM (A: saline, n=8, leptin, n=7; leptin peptide: saline, n=8, leptin, n=8). […] Primary cultures of rat hepatocytes were incubated 30 min at 37° C. with increasing concentrations of mouse leptin peptide. Oleate (0.5 mM) and ^125I-LDL (20 μg/mL) were added and the cells were incubated 2 h at 37° C. After washing, the amount of 125I-LDL bound to the cell surface was measured as described in the Examples section herein. […]

With “human leptin: commercial preparation of recombinant human leptin”, in the assay with db^Pas/db^Pas mice, the “postprandial plasma TG response” value is on record as “slightly reduced”. In addition, the “stimulation of LSR activity in human PLC cells” value in the assay with LSR [1] (10 ng/mL recombinant leptin) is on record as “more efficient”. Moreover, the “LSR activity after long-term exposure” value with LSR [1] (human liver cells (PLC) preincubated 24 h with 200 ng/mL) is recorded as “markedly reduced LSR activity”.

Consider `CCN(CC)CCCC(C)Nc1ccnc2cc(Cl)ccc12` (stereo not shown) [Chloroquine], for which, in the assay with LSR [2], the “increase of the amount of cell-associated 125I-leptin” value is 2-4 fold and the “inhibition of 125I-leptin degradation” value is reported as “more than 60%”.

Regarding `C=C1[C@@H](C)[C@H]2[C@H](Cc3ccccc3)NC(=O)[C@]23OC(=O)/C=C/[C@H](O)CCC[C@@H](C)C/C=C/[C@H]3[C@@H]1O` [cytochalasin B, reference compound], the “reduction of leptin stimulation of LSR activity” value in the assay with LSR [3] is recorded as “more than 80%”.

Regarding `C[C@@H]1C[C@@H]([C@H](O)CC2CC(=O)NC(=O)C2)C(=O)[C@@H](C)C1` [cycloheximide, reference compound], the “effect on the stimulatory effect of leptin on LSR activity” value in the assay on LSR [3] is recorded as “did not suppress the stimulatory effect of leptin”.
